Results reported in ChEMBL document CHEMBL3046607, “Synthesis and Herbicidal Activity of New 1-Alkyl-3-aryloxypyrazole-4-carboxamide Derivatives” (J Pestic Sci, 2004).
Activity calls are given as the source filed them. The rule behind the calls is not given here.

Experiments:
Elatine triandra [1] = test: Post-emergence herbicidal activity against Elatine triandra assessed as bleaching of stem/leaf parts; assay type: functional, organism-based; also: test concentration or dose not given here
Ammannia multiflora [2] = test: Post-emergence herbicidal activity against Ammannia multiflora assessed as bleaching of stem/leaf parts; assay type: functional, organism-based
Rotala indica [3] = test: Post-emergence herbicidal activity against Rotala indica assessed as bleaching of stem/leaf parts; assay type: functional, organism-based
Lindernia procumbens [4] = test: Post-emergence herbicidal activity against Lindernia procumbens assessed as bleaching of stem/leaf parts; assay type: functional, organism-based; also: test concentration or dose not given here
[5] = tested on: Schoenoplectiella juncoides; test: Post-emergence herbicidal activity against Schoenoplectiella juncoides assessed as bleaching of stem/leaf parts; assay type: functional, organism-based; also: test concentration or dose not given here
Oryza sativa [6] = test: Phytotoxicity against Oryza sativa cv. Koshihikari (rice) at 33 g a.i/ha measured after 14 days; assay type: organism-based; settings: in vivo, 336 h
Ammannia multiflora [7] = test: Pre-emergence herbicidal activity against Ammannia multiflora at 33 g a.i/ha measured after 14 days; assay type: functional, organism-based
Elatine triandra [8] = test: Pre-emergence herbicidal activity against Elatine triandra at 33 g a.i/ha measured after 14 days; assay type: functional, organism-based
Rotala indica [9] = test: Pre-emergence herbicidal activity against Rotala indica at 33 g a.i/ha measured after 14 days; assay type: functional, organism-based
Lindernia procumbens [10] = test: Pre-emergence herbicidal activity against Lindernia procumbens at 33 g a.i/ha measured after 14 days; assay type: functional, organism-based
[11] = tested on: Schoenoplectiella juncoides; test: Pre-emergence herbicidal activity against Schoenoplectiella juncoides at 33 g a.i/ha measured after 14 days; assay type: functional, organism-based
Pontederia vaginalis [12] = test: Pre-emergence herbicidal activity against Monochoria vaginalis at 33 g a.i/ha measured after 14 days; assay type: functional, organism-based
Cyperus difformis [13] = test: Pre-emergence herbicidal activity against Cyperus difformis at 33 g a.i/ha measured after 14 days; assay type: functional, organism-based
Echinochloa oryzicola [14] = test: Pre-emergence herbicidal activity against Echinochloa oryzicola at 33 g a.i/ha measured after 14 days; assay type: functional, organism-based
Lindernia procumbens [15] = test: Pre-emergence herbicidal activity against Lindernia procumbens assessed as bleaching of stem/leaf parts; assay type: functional, organism-based
Pontederia vaginalis [16] = test: Pre-emergence herbicidal activity against Monochoria vaginalis assessed as bleaching of stem/leaf parts; assay type: functional, organism-based
[17] = tested on: Schoenoplectiella juncoides; test: Pre-emergence herbicidal activity against Schoenoplectiella juncoides assessed as bleaching of stem/leaf parts; assay type: functional, organism-based
Cyperus difformis [18] = test: Pre-emergence herbicidal activity against Cyperus difformis assessed as bleaching of stem/leaf parts; assay type: functional, organism-based
Echinochloa oryzicola [19] = test: Pre-emergence herbicidal activity against Echinochloa oryzicola assessed as bleaching of stem/leaf parts; assay type: functional, organism-based
Oryza sativa [20] = test: Phytotoxicity against Oryza sativa cv. Koshihikari (rice) at 10 g a.i/ha measured after 14 days; assay type: organism-based; settings: in vivo, 336 h
Ammannia multiflora [21] = test: Pre-emergence herbicidal activity against Ammannia multiflora at 10 g a.i/ha measured after 14 days; assay type: functional, organism-based
Rotala indica [22] = test: Pre-emergence herbicidal activity against Rotala indica at 10 g a.i/ha measured after 14 days; assay type: functional, organism-based
Elatine triandra [23] = test: Pre-emergence herbicidal activity against Elatine triandra at 10 g a.i/ha measured after 14 days; assay type: functional, organism-based
Lindernia procumbens [24] = test: Pre-emergence herbicidal activity against Lindernia procumbens at 10 g a.i/ha measured after 14 days; assay type: functional, organism-based
[25] = tested on: Schoenoplectiella juncoides; test: Pre-emergence herbicidal activity against Schoenoplectiella juncoides at 10 g a.i/ha measured after 14 days; assay type: functional, organism-based
Pontederia vaginalis [26] = test: Pre-emergence herbicidal activity against Monochoria vaginalis at 1 0 g a.i/ha measured after 14 days; assay type: functional, organism-based
Cyperus difformis [27] = test: Pre-emergence herbicidal activity against Cyperus difformis at 10 g a.i/ha measured after 14 days; assay type: functional, organism-based
Echinochloa oryzicola [28] = test: Pre-emergence herbicidal activity against Echinochloa oryzicola at 10 g a.i/ha measured after 14 days; assay type: functional, organism-based
Cyperus difformis [29] = test: Post-emergence herbicidal activity against Cyperus difformis assessed as bleaching of stem/leaf parts; assay type: functional, organism-based; also: test concentration or dose not given here
Pontederia vaginalis [30] = test: Post-emergence herbicidal activity against Monochoria vaginalis assessed as bleaching of stem/leaf parts; assay type: functional, organism-based
Echinochloa oryzicola [31] = test: Post-emergence herbicidal activity against Echinochloa oryzicola assessed as bleaching of stem/leaf parts; assay type: functional, organism-based
Ammannia multiflora [32] = test: Pre-emergence herbicidal activity against Ammannia multiflora assessed as bleaching of stem/leaf parts; assay type: functional, organism-based
Elatine triandra [33] = test: Pre-emergence herbicidal activity against Elatine triandra assessed as bleaching of stem/leaf parts; assay type: functional, organism-based
Rotala indica [34] = test: Pre-emergence herbicidal activity against Rotala indica assessed as bleaching of stem/leaf parts; assay type: functional, organism-based
Ammannia multiflora [35] = test: Pre-emergence herbicidal activity against Ammannia multiflora at 500 g a.i/ha measured after 14 days; assay type: functional, organism-based
Elatine triandra [36] = test: Pre-emergence herbicidal activity against Elatine triandra at 100 g a.i/ha measured after 14 days; assay type: functional, organism-based
Elatine triandra [37] = test: Pre-emergence herbicidal activity against Elatine triandra at 500 g a.i/ha measured after 14 days; assay type: functional, organism-based
Rotala indica [38] = test: Pre-emergence herbicidal activity against Rotala indica at 100 g a.i/ha measured after 14 days; assay type: functional, organism-based
Oryza sativa [39] = test: Phytotoxicity against Oryza sativa cv. Koshihikari (rice) at 100 g a.i/ha measured after 14 days; assay type: organism-based; settings: in vivo, 336 h
Oryza sativa [40] = test: Phytotoxicity against Oryza sativa cv. Koshihikari (rice) at 500 g a.i/ha measured after 14 days; assay type: organism-based; settings: in vivo, 336 h
Ammannia multiflora [41] = test: Pre-emergence herbicidal activity against Ammannia multiflora at 100 g a.i/ha measured after 14 days; assay type: functional, organism-based
Rotala indica [42] = test: Pre-emergence herbicidal activity against Rotala indica at 500 g a.i/ha measured after 14 days; assay type: functional, organism-based
Lindernia procumbens [43] = test: Pre-emergence herbicidal activity against Lindernia procumbens at 100 g a.i/ha measured after 14 days; assay type: functional, organism-based
Lindernia procumbens [44] = test: Pre-emergence herbicidal activity against Lindernia procumbens at 500 g a.i/ha measured after 14 days; assay type: functional, organism-based
[45] = tested on: Schoenoplectiella juncoides; test: Pre-emergence herbicidal activity against Schoenoplectiella juncoides at 100 g a.i/ha measured after 14 days; assay type: functional, organism-based
[46] = tested on: Schoenoplectiella juncoides; test: Pre-emergence herbicidal activity against Schoenoplectiella juncoides at 500 g a.i/ha measured after 14 days; assay type: functional, organism-based
Pontederia vaginalis [47] = test: Pre-emergence herbicidal activity against Monochoria vaginalis at 500 g a.i/ha measured after 14 days; assay type: functional, organism-based
Pontederia vaginalis [48] = test: Pre-emergence herbicidal activity against Monochoria vaginalis at 100 g a.i/ha measured after 14 days; assay type: functional, organism-based
Cyperus difformis [49] = test: Pre-emergence herbicidal activity against Cyperus difformis at 100 g a.i/ha measured after 14 days; assay type: functional, organism-based
Cyperus difformis [50] = test: Pre-emergence herbicidal activity against Cyperus difformis at 500 g a.i/ha measured after 14 days; assay type: functional, organism-based
Echinochloa oryzicola [51] = test: Pre-emergence herbicidal activity against Echinochloa oryzicola at 100 g a.i/ha measured after 14 days; assay type: functional, organism-based
Echinochloa oryzicola [52] = test: Pre-emergence herbicidal activity against Echinochloa oryzicola at 500 g a.i/ha measured after 14 days; assay type: functional, organism-based

Cn1cc(C(=O)Nc2ccc(F)cc2F)c(Oc2cccc(C(F)(F)F)c2)n1
Activity (Elatine triandra [1]): Active | Activity (Ammannia multiflora [2]): Active | Activity (Rotala indica [3]): Active | Activity (Lindernia procumbens [4]): Active | Activity [5]: Active | Activity (Oryza sativa [6]): Non-toxic | Activity (Ammannia multiflora [7]): Active | Activity (Elatine triandra [8]): Active | Activity (Rotala indica [9]): Active | Activity (Lindernia procumbens [10]): Active | Activity [11]: Active | Activity (Pontederia vaginalis [12]): Active | Activity (Cyperus difformis [13]): Active | Activity (Echinochloa oryzicola [14]): Active | Activity (Lindernia procumbens [15]): Active | Activity (Pontederia vaginalis [16]): Active | Activity [17]: Active | Activity (Cyperus difformis [18]): Active | Activity (Echinochloa oryzicola [19]): Active | Activity (Oryza sativa [20]): Non-toxic | Activity (Ammannia multiflora [21]): inactive | Activity (Rotala indica [22]): inactive | Activity (Elatine triandra [23]): inactive | Activity (Lindernia procumbens [24]): inactive | Activity [25]: inactive | Activity (Pontederia vaginalis [26]): inactive | Activity (Cyperus difformis [27]): inactive | Activity (Echinochloa oryzicola [28]): inactive | Activity (Cyperus difformis [29]): Active | Activity (Pontederia vaginalis [30]): Active | Activity (Echinochloa oryzicola [31]): Active | Activity (Ammannia multiflora [32]): Active | Activity (Elatine triandra [33]): Active | Activity (Rotala indica [34]): Active

Cn1cc(C(=O)Nc2ccc(F)cc2F)c(Oc2ccc(Cl)c(C(F)(F)F)c2)n1
Activity (Elatine triandra [1]): Active | Activity (Ammannia multiflora [2]): Active | Activity (Rotala indica [3]): Active | Activity (Lindernia procumbens [4]): Active | Activity [5]: Active | Activity (Oryza sativa [6]): Non-toxic | Activity (Ammannia multiflora [7]): Active | Activity (Elatine triandra [8]): Active | Activity (Rotala indica [9]): Active | Activity (Lindernia procumbens [10]): Active | Activity [11]: Active | Activity (Pontederia vaginalis [12]): Active | Activity (Cyperus difformis [13]): Active | Activity (Echinochloa oryzicola [14]): Active | Activity (Lindernia procumbens [15]): Active | Activity (Pontederia vaginalis [16]): Active | Activity [17]: Active | Activity (Cyperus difformis [18]): Active | Activity (Echinochloa oryzicola [19]): Active | Activity (Oryza sativa [20]): Non-toxic | Activity (Ammannia multiflora [21]): Active | Activity (Rotala indica [22]): Active | Activity (Elatine triandra [23]): Active | Activity (Lindernia procumbens [24]): Active | Activity [25]: Active | Activity (Pontederia vaginalis [26]): Active | Activity (Cyperus difformis [27]): Active | Activity (Echinochloa oryzicola [28]): inactive | Activity (Cyperus difformis [29]): Active | Activity (Pontederia vaginalis [30]): Active | Activity (Echinochloa oryzicola [31]): Active | Activity (Ammannia multiflora [32]): Active | Activity (Elatine triandra [33]): Active | Activity (Rotala indica [34]): Active

Cn1cc(C(=O)Nc2ccccc2)c(Oc2cccc(C(F)(F)F)c2)n1
Activity (Elatine triandra [1]): Active | Activity (Ammannia multiflora [2]): Active | Activity (Rotala indica [3]): Active | Activity (Lindernia procumbens [4]): Active | Activity [5]: Active | Activity (Ammannia multiflora [35]): Active | Activity (Elatine triandra [36]): Active | Activity (Elatine triandra [37]): Active | Activity (Rotala indica [38]): Active | Activity (Oryza sativa [39]): Non-toxic | Activity (Oryza sativa [6]): Non-toxic | Activity (Oryza sativa [40]): Toxic | Activity (Ammannia multiflora [7]): Active | Activity (Ammannia multiflora [41]): Active | Activity (Elatine triandra [8]): Active | Activity (Rotala indica [9]): Active | Activity (Rotala indica [42]): Active | Activity (Lindernia procumbens [10]): Active | Activity (Lindernia procumbens [43]): Active | Activity [11]: inactive | Activity (Lindernia procumbens [44]): Active | Activity [45]: Active | Activity [46]: Active | Activity (Pontederia vaginalis [12]): Active | Activity (Pontederia vaginalis [47]): Active | Activity (Pontederia vaginalis [48]): Active | Activity (Cyperus difformis [13]): Active | Activity (Cyperus difformis [49]): Active | Activity (Cyperus difformis [50]): Active | Activity (Echinochloa oryzicola [51]): Active | Activity (Echinochloa oryzicola [14]): inactive | Activity (Echinochloa oryzicola [52]): Active | Activity (Lindernia procumbens [15]): Active | Activity (Pontederia vaginalis [16]): Active | Activity [17]: Active | Activity (Cyperus difformis [18]): Active | Activity (Echinochloa oryzicola [19]): Active | Activity (Cyperus difformis [29]): Active | Activity (Pontederia vaginalis [30]): Active | Activity (Echinochloa oryzicola [31]): Active | Activity (Ammannia multiflora [32]): Active | Activity (Elatine triandra [33]): Active | Activity (Rotala indica [34]): Active
